# In patent publication US10814021B2, “Paramagnetic boron-doped graphene quantum dots and their application for safe magnetic resonance imaging” (priority 2017, dated 2020):
# Entries after “also recorded” stand apart in the source; their conditions may differ.
# Experiments:
# [1] = In vitro MR imaging (T1/T2 relaxivity) of SL-BGQDs and Gd-DTPA in PBS at 14 T; assay type: physicochemical; conditions: SL-BGQDs per boron molar concentration
# Experimental: To evaluate the applicability of using SL-BGQDs as contrast agents for MR imaging, quantitative T1 and T1-weighted MR imaging scan sequences were acquired of SL-BGQD samples in PBS at magnetic field strength of 14T. […] 1/T1 was then plotted against the boron molar concentration in SL-BGQDs (FIG. 13D).
# T1- and T2-weighted imaging and quantitative T1 and T2 MR imaging scan sequences were used to investigate the contrast enhancing capabilities of SL-BGQDs. MR imaging was conducted on a Bruker Avance III 600 MHz, 14 T wide bore spectrometer. […] The vials were fixed in place inside a water reservoir; the water served as a homogeneous background signal to minimize magnetic susceptibility variations near samples. The secured vials were placed in a 25 mm single-channel ^1H radiofrequency receiving coil (PB Micro 2.5). […] Quantitative T2 values were measured using a multi-spin multi-echo (MSME) pulse sequence with TR=2500 ms, TE=6.7+6n ms (n=0-16), and 78×156 μm^2 in-plane resolution with 0.5 mm slice thickness for 14 slices. T1-weighted images were acquired with a RARE pulse sequence with TE=5.49 ms, TR=531 ms, 78×52 μm^2 in-plane resolution and 0.5 mm slice thickness for 10 slices. […] T1 values were determined within a circular, 100-voxel region of interest.
# [2] = comparison values quoted in text; field not stated; cited from earlier work
# C57BL/6 wild-type mice [3] = experiment: In vivo cranial T1-weighted MR imaging (neurovasculature), SL-BGQDs vs Gd-DTPA; conditions: 10 min after i.v. 200 μL, 5 mg mL^−1
# Source text: (§1) Mice were anesthetized with isoflurane (Piramal Healthcare) and secured in a coil-integrated respiratory monitoring system (SA Instruments; MR-compatible small animal monitoring and gating system) with nose-cone for oxygen/anesthetic, ear-bar head holder, circulating temperature control bath, and residual gas extraction. Abdominal scans were acquired using rapid acquisition with refocused echoes (RARE) T1-weighted (TR/TE=691/5.5 ms, in-plane resolution 93×62 μm^2, matrix 256×284) sequences and slices placed in the transverse plane with 0.5 mm slice thickness and 0.75 mm interslice gaps allowing for coverage from the liver to the pelvic floor. Cranial scans were acquired over the entire head with a 3-dimensional, T1-weighted fast low angle shot (FLASH) scan sequence (TR/TE=16.2/2.7 ms, resolution 106×108×152 μm^3, matrix 284×186×132). Images from this cranial scan sequence were processed using a maximum intensity projection with a 3 mm slab thickness.
# C57BL/6 wild-type mice [4] = experiment: In vivo abdominal T1-weighted MR imaging, SL-BGQDs vs Gd-DTPA
# Source text: T1-weighted MR images of the cross-sectional views of mice centered within the abdomen were acquired before and after contrast agent injection.
# as §1
smiles,measurement,setting,value
"O=C([O-])CN(CCN(CC(=O)[O-])CC(=O)O)CCN(CC(=O)[O-])CC(=O)O.[Gd+3] [Gd-DTPA, gadolinium diethylene penta-acetic acid]","longitudinal relaxivity, r1",[1],4.3 mM⁻¹ s⁻¹
same,r1 relaxivity of comparison T1 CAs,[2],5.39 mM⁻¹ s⁻¹
same,"contrast of cranial vasculature, post- vs pre-injection",C57BL/6 wild-type mice [3],no apparent change in contrast
same,T1-weighted contrast enhancement in any organ at 60 min post-injection,"C57BL/6 wild-type mice [4]; 60 min post-injection, i.v. 200 μL, 1 mg mL^−1",completely nullified; also recorded: no T1-weighted signal increase was detected
same,time of peak contrast enhancement post-injection,"C57BL/6 wild-type mice [4]; i.v. 200 μL, 1 mg mL^−1",≤ 10 min
same,"signal enhancement in renal cortex, renal pelvis and gall bladder, post- vs pre-injection","C57BL/6 wild-type mice [4]; i.v. 200 μL, 1 mg mL^−1, 14 T",substantial signal enhancement
same,imaging time,C57BL/6 wild-type mice [4]; summary statement,about 10 min
